The results in this text go back to patent publication US20210130473A1, “TGFßR1 INHIBITOR-ASGR ANTIBODY CONJUGATES AND USES THEREOF” (Silverback Therapeutics, Inc., priority 2019, published 2021).

In one experiment the test system is TGFβ/SMAD Signaling Pathway SBE reporter cell line. As to the kind of experiment: TGFb reporter assay in HEK293 SBE-LUC reporter cells (luciferase). The experiment is classed as cell-based. The conditions noted are these: Homo sapiens, key of the table says IC50, read-out: EC50 (the source's name). The method, then: TGFβ/SMAD Signaling Pathway SBE reporter cell line was obtained from BPS Bioscience. Cells are passed, expanded, and stored in liquid nitrogen as per the supplier's instructions with the exception that growth media is changed to DMEM-C with Geneticin (DMEM supplemented with 10% fetal bovine serum, 1×NEAA, 1 mM Pyruvate, 2 mM glutamine, 50 μg/mL penicillin, 50 U/mL streptomycin and 400 μg/mL of Geneticin). The assay media is MEM supplemented with 0.5% fetal bovine serum, 1×NEAA, 1 mM Pyruvate, 50 μg/mL penicillin and 50 U/mL streptomycin.
Compounds are assayed to measure their activity as ALK5 inhibitors.
The HEK293 SBE-LUC reporter cells from Example 15 were grown in DMEM-C with Geneticin (DMEM supplemented with […], 1×NEAA, 1 mM Pyruvate, 2 mM glutamine, 50 μg/mL penicillin, 50 U/mL streptomycin and 400 ug/mL of Geneticin). The assay media was MEM supplemented with 0.5% fetal bovine serum, 1×NEAA, 1 mM Pyruvate, 50 μg/mL penicillin and 50 U/mL streptomycin.
The HEK293 SBE-LUC reporter cells were harvested from the tissue culture flasks by incubation in small quantity of Versene at room temperature for three to five minutes after the media in the flask is removed and cells rinsed with PBS. Cells were counted and diluted in the assay media at ˜0.8×10^6 cells/mL then 50 uL/well were added to 96-well assay plate. Test samples (at desired concentrations diluted in assay media) were added to assay plate containing the 50 uL/well of cells (or media only), 50 uL per well, and incubated for 5-6 hours at 37° C. in a 5% CO2 humidified incubator. After that time, 15 uL of TGFb diluted to 12.5 ng/mL in the assay media was added to the plate. Controls included TGFb titration (from 25 to 0 ng/mL) without inhibitors, and media only (without cells, inhibitor or TGFb). Plates were incubated at 37° C. in a 5% CO2 humidified incubator for 18h. Luciferase substrate solution was subsequently added at 75 uL per well, incubated in dark with shaking at room temperature for 10 min, and luminescence was measured using a luminometer.
In general terms: In a reporter assay the amount or activity of a reporter protein is the signal.
`Cc1cccc(-c2nc(CNCc3ccccc3)[nH]c2-c2ccc3ncnn3c2)n1` [Compound 1, 1-(5-([1,2,4]triazolo[1,5-a]pyridin-6-yl)-4-(6-methylpyridin-2-yl)-1H-imidazol-2-yl)-N-benzylmethanamine]: the IC50 was 0.0001 to 0.01 µM.
The same measure, in the same setting: then `Cc1cccc(-c2nc(CNc3ccc4c(c3)CNCC4)[nH]c2-c2ccc3ncnn3c2)n1` [Compound 1.1], with 0.1 to 1 µM; and `Cc1cccc(-c2nc(CNc3ccc4c(c3)CCNC4)[nH]c2-c2ccc3ncnn3c2)n1` [Compound 1.2], with 0.1 to 1 µM; and `Cc1cccc(-c2nc(CNc3cccc4c3CNCC4)[nH]c2-c2ccc3ncnn3c2)n1` [Compound 1.3], with 0.1 to 1 µM.
Still for that read-out and setting: the figure for `Cc1cccc(-c2nc(CNc3cccc4c3CCNC4)[nH]c2-c2ccc3ncnn3c2)n1` [Compound 1.4] is 0.1 to 1 µM; for `Cc1cccc(-c2nc(CNc3ccc4c(c3)CCC4N)[nH]c2-c2ccc3ncnn3c2)n1` (stereo not shown) [Compound 1.5] it is 0.1 to 1 µM; for `Cc1cccc(-c2nc(CNc3cccc4c3CCC4N)[nH]c2-c2ccc3ncnn3c2)n1` (stereo not shown) [Compound 1.6] it is 0.1 to 1 µM.
Still for that read-out and setting: the figure for `Cc1cccc(-c2nc(CNC3CC3)[nH]c2-c2ccc3ncnn3c2)n1` [Compound 1.7] is 0.1 to 1 µM.
As to `Cc1cccc(-c2nc(CNCC3CC3)[nH]c2-c2ccc3ncnn3c2)n1` [Compound 1.8], the IC50 fell in the range of 0.1 to 1 µM.
The same measure, in the same setting: the figure for `Cc1cccc(-c2nc(CNC34CC(C3)C4)[nH]c2-c2ccc3ncnn3c2)n1` [Compound 1.9] is 0.01 to 0.1 µM; for `Cc1cccc(-c2nc(CNC3CCC3)[nH]c2-c2ccc3ncnn3c2)n1` [Compound 1.10] it is 0.1 to 1 µM.
Still for that read-out and setting: the figure for `Cc1cccc(-c2nc(CNC3CCCC3)[nH]c2-c2ccc3ncnn3c2)n1` [Compound 1.11] is 0.01 to 0.1 µM.
On the same count and under the same terms, the figure for `Cc1cccc(-c2nc(CNC3CCCCC3)[nH]c2-c2ccc3ncnn3c2)n1` [Compound 1.12] is 0.01 to 0.1 µM; for `Cc1cccc(-c2nc(CNC3CCCCCC3)[nH]c2-c2ccc3ncnn3c2)n1` [Compound 1.13] it is 0.01 to 0.1 µM.
As to `Cc1cccc(-c2nc(CNC3CCOCC3)[nH]c2-c2ccc3ncnn3c2)n1` [Compound 1.14], the IC50 was 0.01 to 0.1 µM.
Still for that read-out and setting: the figure for `Cc1cccc(-c2nc(CNc3cncc(CN)c3)[nH]c2-c2ccc3ncnn3c2)n1` [Compound 1.19] is 0.1 to 1 µM; for `Cc1cccc(-c2nc(CNC3CCc4ccccc43)[nH]c2-c2ccc3ncnn3c2)n1` (stereo not shown) [Compound 1.26] it is 0.01 to 0.1 µM.
As for `Cc1cccc(-c2nc(CNC3Cc4ccccc4C3)[nH]c2-c2ccc3ncnn3c2)n1` [Compound 1.27], the IC50 lay within 0.01 to 0.1 µM.
For the molecule `Cc1cccc(-c2nc(CN3CCCCC3)[nH]c2-c2ccn3ncnc3c2)n1` [Compound 1.35], the IC50 is 0.1 to 1 µM.
`Cc1cccc(-c2nc(CNC3CCCNC3)[nH]c2-c2ccn3ncnc3c2)n1` (stereo not shown) [Compound 1.38]: the IC50 is 1 to 10 µM.
Same read-out and setting: the figure for `Cc1cccc(-c2nc(CNC3CCNCC3)[nH]c2-c2ccn3ncnc3c2)n1` [Compound 1.39] is 1 to 10 µM.
For `Cc1cccc(-c2nc(CN3CCc4ccccc4C3)[nH]c2-c2ccn3ncnc3c2)n1` [Compound 1.40], the IC50 was 0.1 to 1 µM.
Turning to `Cc1cccc(-c2nc(CNCc3ccc4c(c3)OCO4)[nH]c2-c2ccc3ncnn3c2)n1` [Compound 1.41], the IC50 lay in the range of 0.1 to 1 µM.
As for `Cc1cccc(-c2nc(CNCC3CCCCC3)[nH]c2-c2ccc3ncnn3c2)n1` [Compound 1.42], the IC50 was 0.01 to 0.1 µM.
The same measure, in the same setting: then `Cc1cccc(-c2nc(CN[C@H]3c4ccccc4C[C@H]3O)[nH]c2-c2ccc3ncnn3c2)n1` [Compound 1.43], with 0.01 to 0.1 µM; and `Cc1cccc(-c2nc(CN[C@@H]3c4ccccc4C[C@@H]3O)[nH]c2-c2ccc3ncnn3c2)n1` [Compound 1.44], with 0.01 to 0.1 µM; and `Cc1cccc(-c2nc(CN[C@H]3c4ccccc4C[C@@H]3O)[nH]c2-c2ccc3ncnn3c2)n1` [Compound 1.45], with 0.01 to 0.1 µM.
`Cc1cccc(-c2nc(CN[C@@H]3c4ccccc4C[C@H]3O)[nH]c2-c2ccc3ncnn3c2)n1` [Compound 1.46]: the IC50 fell in the range of 0.01 to 0.1 µM.
The same measure, in the same setting: the figure for `Cc1cccc(-c2nc(C3CCCCN3)[nH]c2-c2ccc3ncnn3c2)n1` (stereo not shown) [Compound 1.49] is 0.1 to 1 µM.
The same measure, in the same setting: the figure for `Cc1cccc(-c2nc(C3CCNC3)[nH]c2-c2ccc3ncnn3c2)n1` (stereo not shown) [Compound 1.50] is 0.1 to 1 µM.
The same measure, in the same setting: the figure for `Cc1cccc(-c2nc(C3CNC3)[nH]c2-c2ccc3ncnn3c2)n1` [Compound 1.53] is 1 to 10 µM; for `Cc1cccc(-c2nc(CN3Cc4ccccc4C3=O)[nH]c2-c2ccc3ncnn3c2)n1` [Compound 1.56] it is 0.01 to 0.1 µM; for `Cc1cccc(-c2nc(CNCc3cccc4ccccc34)[nH]c2-c2ccc3ncnn3c2)n1` [Compound 1.57] it is 0.01 to 0.1 µM.
Regarding `Cc1cccc(-c2nc(CNCc3ccc4ccccc4c3)[nH]c2-c2ccc3ncnn3c2)n1` [Compound 1.58], the IC50 is 0.1 to 1 µM.
On the same count and under the same terms, the figure for `Cc1cccc(-c2nc(CNCCc3cccc4ccccc34)[nH]c2-c2ccc3ncnn3c2)n1` [Compound 1.59] is 0.01 to 0.1 µM; for `Cc1cccc(-c2nc(CNCCc3ccnc4ccccc34)[nH]c2-c2ccc3ncnn3c2)n1` [Compound 1.60] it is 0.01 to 0.1 µM.
In the case of `Cc1cccc(-c2nc(CNCCc3cccc4ncccc34)[nH]c2-c2ccc3ncnn3c2)n1` [Compound 1.61], the IC50 fell in the range of 0.01 to 0.1 µM.
Same read-out and setting: the figure for `Cc1cccc(-c2nc(CNCc3ccccc3Oc3ccncc3)[nH]c2-c2ccc3ncnn3c2)n1` [Compound 55] is 1 to 10 µM; for `Cc1cccc(-c2nc(CNCc3cccc(Oc4ccccc4)c3)[nH]c2-c2ccc3ncnn3c2)n1` [Compound 56] it is 0.01 to 0.1 µM; for `Cc1cccc(-c2nc(CNCc3cccc(Oc4cccnc4)c3)[nH]c2-c2ccc3ncnn3c2)n1` [Compound 57] it is 0.01 to 0.1 µM.
In the case of `Cc1cccc(-c2nc(CNCc3cccc(Oc4ccncc4)c3)[nH]c2-c2ccc3ncnn3c2)n1` [Compound 58], the IC50 was 0.01 to 0.1 µM.
Regarding `Cc1cccc(-c2nc(CNCc3ccccc3-c3ccccc3)[nH]c2-c2ccc3nccnc3c2)n1` [Compound 72], the IC50 fell in the range of 0.01 to 0.1 µM.
On the same count and under the same terms, then `Cc1cccc(-c2nc(CNCc3ccccc3)[nH]c2-c2ccc3ncccc3n2)n1` [Compound 73], with 0.1 to 1 µM.
Turning to `Cc1cccc(-c2nc(CNCc3ccccc3)[nH]c2-c2ccnc3ccccc23)n1` [Compound 74], the IC50 was in the range of 0.1 to 1 µM.
On to `Cc1cccc(-c2nc(CNCc3ccccc3)[nH]c2-c2ccccn2)n1` [Compound 75], for which the IC50 was 0.1 to 1 µM.
Turning to `Cc1cccc(-c2nc(CNCc3ccccc3)[nH]c2-c2ccc3c(c2)OCO3)n1` [Compound 76], the IC50 lay in the range of 0.01 to 0.1 µM.
Still for that read-out and setting: the figure for `Cc1cccc(-c2nc(CNCc3ccccc3)[nH]c2-c2ccc3nccnc3c2)n1` [Compound 77] is 0.0001 to 0.01 µM; for `Cc1cccc(-c2nc(CNCCc3c(F)cccc3F)[nH]c2-c2ccc3ncccc3n2)n1` [Compound 78] it is 0.0001 to 0.01 µM; for `Cc1cccc(-c2nc(CNCCc3c(F)cccc3F)[nH]c2-c2ccnc3ccccc23)n1` [Compound 79] it is 0.1 to 1 µM.
Turning to `Cc1cccc(-c2nc(CNCCc3c(F)cccc3F)[nH]c2-c2ccncc2)n1` [Compound 80], the IC50 fell in the range of 0.1 to 1 µM.

The next experiment has as its target T1, ALK5 (Homo sapiens, UniProt P36897).
T1 construct: purchased Reaction Biology Corp (Malvern, Pa.)
T1 sequence (P36897 34-503): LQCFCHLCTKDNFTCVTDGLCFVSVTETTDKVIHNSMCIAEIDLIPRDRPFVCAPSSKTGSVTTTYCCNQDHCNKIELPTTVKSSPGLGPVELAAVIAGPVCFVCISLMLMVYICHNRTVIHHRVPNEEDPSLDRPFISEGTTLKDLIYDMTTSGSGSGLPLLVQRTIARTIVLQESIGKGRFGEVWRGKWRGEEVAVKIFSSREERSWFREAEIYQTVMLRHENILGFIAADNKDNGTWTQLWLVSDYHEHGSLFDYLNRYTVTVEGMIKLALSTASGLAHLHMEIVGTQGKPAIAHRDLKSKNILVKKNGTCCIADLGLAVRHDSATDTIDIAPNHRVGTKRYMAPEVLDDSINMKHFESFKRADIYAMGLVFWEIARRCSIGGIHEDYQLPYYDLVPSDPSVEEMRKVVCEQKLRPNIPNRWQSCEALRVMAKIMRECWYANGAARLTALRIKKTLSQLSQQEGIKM
As to the kind of experiment: ALK5 enzyme inhibition assay (casein substrate, 10 uM ATP, 33P-ATP, filter-binding; Reaction Biology Corp). It is filed as biochemical. To be noted: Table 11. The method, then:
ALK5 enzyme inhibition assays were performed by Reaction Biology Corp (Malvern, Pa.). 1 mg/mL of peptide substrate (casein) and 10 uM ATP were prepared in a mixture of fresh reaction buffer. The kinase was delivered into the substrate solution which was gently mixed. Compounds in 100% DMSO were added to the kinase reaction mixture by Acoustic technology (Echo550; nanoliter range) and the mixture was incubated for 20 min at room temperature. ^33P-ATP (Specific activity 10 uCi/uL) was added into the reaction mixture to initiate the reaction and the reaction mixture was incubated for 2 hours at room temperature. Radioactivity was detected by filter-binding method and kinase activity data were expressed as the percent remaining kinase activity in test samples compared to vehicle (dimethyl sulfoxide) reactions. IC50 values and curve fits were obtained using Prism (GraphPad Software).
As to `Cc1cccc(-c2nc(CNCc3ccccc3)[nH]c2-c2ccc3ncnn3c2)n1` [Compound 1, 1-(5-([1,2,4]triazolo[1,5-a]pyridin-6-yl)-4-(6-methylpyridin-2-yl)-1H-imidazol-2-yl)-N-benzylmethanamine], the IC50 lay within 0.1 to 1 µM.
Consider `Cc1cccc(-c2nc(CNCCc3c(F)cccc3F)[nH]c2-c2ccc3ncccc3c2)n1` [Compound 89], for which the IC50 was in the range of 0.0001 to 0.05 µM.

Staying with this experiment, now noted: Table 12.
Molecule `Cc1cccc(-c2nc(CNc3ccc4c(c3)CCC4N)[nH]c2-c2ccc3ncnn3c2)n1` (stereo not shown) [Compound 1.5] displayed an IC50 of 0.1 to 1 µM.
On the same count and under the same terms, then `Cc1cccc(-c2nc(CNc3cccc4c3CCC4N)[nH]c2-c2ccc3ncnn3c2)n1` (stereo not shown) [Compound 1.6], with 0.1 to 1 µM.
As for `Cc1cccc(-c2nc(CNC34CC(C3)C4)[nH]c2-c2ccc3ncnn3c2)n1` [Compound 1.9], the IC50 is 1 to 10 µM.
